Laboratory results: patent US10927136B2, “Phosphorus prodrugs of pyrazolo-substituted pyrimidine sGC stimulators” (Cyclerion Therapeutics, Inc., priority 2016, dated 2021)
Like-named read-outs stand apart in the source and are kept apart here.

Legend:
[1] = biological target: T1, sGC enzyme (Homo sapiens, UniProt Q02108+Q02153); experiment: cGMP GloSensor cell-based assay, 384-well format; details: for EC50: HEK293 GloSensor 40F cGMP cells, 10 μM DETA-NONOate, read-out: Absolute EC50
T1 construct: sGC enzyme activity values in HEK cells, determined by the GloSensor assay; host or cells: HEK293 expressing GloSensor 40F cGMP
T1 sequence (Q02153 1-619): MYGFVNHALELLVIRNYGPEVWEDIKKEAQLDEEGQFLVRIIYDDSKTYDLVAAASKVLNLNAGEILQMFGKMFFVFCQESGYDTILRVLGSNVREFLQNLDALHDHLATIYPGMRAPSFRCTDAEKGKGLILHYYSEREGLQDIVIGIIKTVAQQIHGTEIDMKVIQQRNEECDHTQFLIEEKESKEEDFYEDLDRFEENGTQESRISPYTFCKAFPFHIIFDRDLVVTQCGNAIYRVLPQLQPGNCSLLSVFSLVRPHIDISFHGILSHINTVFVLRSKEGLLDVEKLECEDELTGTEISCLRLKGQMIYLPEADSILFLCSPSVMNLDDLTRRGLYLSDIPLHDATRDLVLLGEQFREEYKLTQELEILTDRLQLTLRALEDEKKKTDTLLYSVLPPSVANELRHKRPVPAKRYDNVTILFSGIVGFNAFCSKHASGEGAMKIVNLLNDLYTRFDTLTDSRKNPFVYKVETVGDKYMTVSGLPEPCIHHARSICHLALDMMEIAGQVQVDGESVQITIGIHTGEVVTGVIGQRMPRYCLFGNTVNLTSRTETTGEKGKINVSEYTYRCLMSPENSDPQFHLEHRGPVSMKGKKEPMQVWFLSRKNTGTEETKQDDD
T1 sequence (Q02108 1-690): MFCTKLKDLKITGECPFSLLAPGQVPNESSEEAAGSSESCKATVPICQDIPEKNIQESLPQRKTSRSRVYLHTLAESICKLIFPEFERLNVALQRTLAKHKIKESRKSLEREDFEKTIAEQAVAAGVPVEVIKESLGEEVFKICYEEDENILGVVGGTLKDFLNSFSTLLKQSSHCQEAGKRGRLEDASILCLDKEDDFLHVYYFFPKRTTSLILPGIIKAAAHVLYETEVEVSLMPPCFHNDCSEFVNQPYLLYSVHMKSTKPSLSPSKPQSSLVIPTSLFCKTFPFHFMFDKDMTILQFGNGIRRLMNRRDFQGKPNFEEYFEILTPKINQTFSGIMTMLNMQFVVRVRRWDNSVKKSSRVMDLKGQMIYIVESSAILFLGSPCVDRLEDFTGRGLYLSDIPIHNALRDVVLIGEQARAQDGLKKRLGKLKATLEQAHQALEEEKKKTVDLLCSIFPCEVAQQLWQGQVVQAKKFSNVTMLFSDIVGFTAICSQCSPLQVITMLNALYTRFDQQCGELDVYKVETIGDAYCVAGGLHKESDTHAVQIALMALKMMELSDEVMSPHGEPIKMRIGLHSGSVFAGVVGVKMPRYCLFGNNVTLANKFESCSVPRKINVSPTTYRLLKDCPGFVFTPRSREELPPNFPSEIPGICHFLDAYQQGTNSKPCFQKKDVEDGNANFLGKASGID
Description: Human embryonic kidney cells (HEK293) cells expressing GloSensor™ 40F cGMP (Part No: CS182801, Promega) were used to evaluate the activity of test compounds. The luminescent biosensors (engineered luciferase) that were incorporated into these cells detect cGMP formed by the compounds stimulating the sGC enzyme and emit luminescence.
cGMP GloSensor cells were maintained in Dulbecco's Modification of Eagle's Medium (DMEM) supplemented with fetal bovine serum (FBS, 10% final) and hygromycine (200 ug/ml). The day before assay, cells were plated in DMEM with 10% FBS in a 50 μL volume at a density of 1.5×10^4 cells/well in a poly-D-lysine coated 384-well flat white-bottom plate (Corning Cat. No. 35661). Cells were incubated overnight at 37° C. in a humidified chamber with 5% CO2. The next day, medium was removed and cells were replaced with 40 ul/well of GloSensor™, 2 mM (Promega Cat No E1291). Cells were treated for 90 minutes at 25° C. to allow the substrate to equilibrate in the cells. Test compounds and Diethylenetriamine NONOate (DETA-NONOate) was diluted to 3 mM (20×) in serum-free CO2 independent medium and serially diluted at 4× dilutions to create 5× dose curve from which 10 ul was added to the wells (x μM concentration for test compound solution and 10 μM concentration for DETA-NONOate solution; wherein x is one of the following final concentrations).
For the kinetics studies, luminescence was measured right away for 0.2 sec per well with Envision (Perkin Elmer). For endpoint SAR screening, data were collected after 55 min incubation at room temperature.
Data analysis was carried out as indicated above in Example 2A.
sGC enzyme activity values in HEK cells, determined by the GloSensor assay, expressed as Absolute EC50 which is defined as the concentration at which a given compound elicits 50% of the high control response obtained with Compound Y, after normalization.

[2] = Rat PK following intravenous and oral dosing; assay type: in vivo, male Sprague-Dawley rats
[3] = plasma, Intermediate 3 dosed 1 mg/kg IV in PEG
[4] = plasma, Intermediate 3 dosed 3.0 mg/kg PO

EC50 ([1]; prodrug) [nM]	Vol. of Dist ([2]; Compound I-1 1 mg/kg IV in PBS, analyte Compound I-1) [L/kg]	EC50 ([1]; Parent compound column) [nM]	Vol. of Dist ([2]; Intermediate 3 dosed 1 mg/kg IV in PEG) [L/kg]	Bioavail. (%) ([2]; Intermediate 3 dosed 3.0 mg/kg PO)	AUC(0-inf) [2, 3] [ng·h/mL]	Cmax [2, 3] [ng/mL]	clearance [2, 3] [mL/min/kg]	AUC(0-t) [2, 4] [ng·h/mL]	Cmax [2, 4] [ng/mL]	Tmax [2, 4] [h]	half-life ([2]; plasma, iv, 1 mg/kg, Intermediate 3 dosed 1 mg/kg IV in PEG) [h]	Compound	sGC agonism as compared to parent drug ([1]; GloSensor assay)
4840	4.4 ± 2.6	–	–	–	–	–	–	–	–	–	–	O=P(O)(O)OC(CNc1nc(-c2cc(-c3ccon3)n(Cc3ccccc3F)n2)ncc1F)(C(F)(F)F)C(F)(F)F [Compound I-1]	did not exhibit a high degree of sGC agonism
–	–	72	9.5	102	1100	227	16	3600 ± 280	250 ± 10	8	7.1	OC(CNc1nc(-c2cc(-c3ccon3)n(Cc3ccccc3F)n2)ncc1F)(C(F)(F)F)C(F)(F)F [Intermediate 3]	–
